“And” between values parts separate entries of the source, which are not always exact repeats. Equal entries are not always repeated.

The target of this assay is T1, Thyrotropin-releasing hormone receptor (Mus musculus) (UniProt P21761).
T1 sequence (whole entry): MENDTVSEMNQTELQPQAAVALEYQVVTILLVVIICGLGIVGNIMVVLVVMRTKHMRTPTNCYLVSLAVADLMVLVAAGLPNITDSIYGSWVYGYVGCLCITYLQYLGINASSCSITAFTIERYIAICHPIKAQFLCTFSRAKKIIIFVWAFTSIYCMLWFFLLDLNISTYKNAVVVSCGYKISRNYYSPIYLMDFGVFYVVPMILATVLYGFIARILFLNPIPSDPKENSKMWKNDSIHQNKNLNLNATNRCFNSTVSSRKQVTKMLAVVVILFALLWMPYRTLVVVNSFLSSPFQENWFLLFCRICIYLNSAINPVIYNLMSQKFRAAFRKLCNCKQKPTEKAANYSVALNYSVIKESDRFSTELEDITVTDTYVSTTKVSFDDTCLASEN
Briefly: Displacement of [3H]MeTRH from Thyrotropin releasing hormone receptor 1 was measured; expressed as %.

With `CNC(=O)c1cc2ccccc2c(-c2ccccc2Cl)n1`, the Competition was 33% and 29%. On to `CCCCN(C)C(=O)c1cc2ccccc2c(-c2ccccc2Cl)n1`, for which the Competition is 84% and 92%. Take `CCC(C)NC(=O)c1cc2ccccc2c(-c2cccc([N+](=O)[O-])c2)n1` (configuration not stated): the Competition is 21% and 31%.

With `CCC(C)N(C)C(=O)c1cc2ccccc2c(-c2ccccc2Cl)n1` (stereo in doubt; 10), the Competition is 73% and 90%. In the case of `CCC(C)N(C)C(=O)c1cc2ccccc2c(-c2ccccc2Cl)n1` (stereo in doubt) it was 44% and 56%; in that of `CCC(C)NC(=O)c1cc2ccccc2c(-c2ccc([N+](=O)[O-])cc2)n1` (configuration not stated), 16% and 40%. As to `CCCNC(=O)c1cc2ccccc2c(-c2ccccc2Cl)n1`, the Competition was 78% and 91%.

These data come from ChEMBL document CHEMBL1144436, “1-(Phenyl)isoquinoline carboxamides: a novel class of subtype selective inhibitors of thyrotropin-releasing hormone (TRH) receptors” (Bioorg Med Chem Lett, 2005).
